Data reported in US8293786B2 (Alltranz Inc., priority 2007, dated 2012).

Tests used:
[1] = Plasma stability of cannabidiol prodrugs (bioconversion to parent drug); assay type: in vitro ADME; settings: Table 20, di-prodrug in plasma; for % mono-prodrug at time (h): mono-prodrug formed
Procedure: An approximated 1 mg/mL stock solution of each prodrug was prepared in 100 μL of ethanol and 900 μL of acetonitrile. Ten (10) μL of stock was spiked into 1 mL of plasma and vortexed. The samples were kept sealed in an amber vial and samples were obtained to analyze for bioconversion to parent drug.

human abdominal skin = experiment: In vitro human skin permeation and skin disposition, flow-through diffusion cells (Example 1); assay type: in vitro ADME
Procedure: Flow through diffusion cells were used for the permeation studies. HEPES-buffered Hanks' balanced salts containing 40% (polyethylene glycol) PEG 400 with gentamicin was used for the receiver compartment. Donor solution was comprised of either 100% propylene glycol (PG) solution or a rubbed in gel formulation. […] Drug accumulation in the skin after a 24 or 36 h diffusion experiment was determined as μmol/g wet tissue weight.
The skin samples used in the following experiments were obtained from abdominal reduction surgery and dermatomed to a thickness of approximately 200 μm. The skin samples used herein were frozen at −20° C. for less than six months.
1 L of receiver fluid was prepared by measuring 1 L of nanopure water into a graduated cylinder. 90% of the water was added to an Erlenmeyer flask. Hanks' salts (1 bottle) were added to the water along with 5.96 g of HEPES and 0.35 g of sodium bicarbonate. The pH of the solution was adjusted with 1 N sodium hydroxide solution to pH 7.4. The remaining water was added and the receiver fluid was filtered through a 0.2μ filter (Millipore, Billerica, Mass.). 50 mg of gentamicin was added to the filtered receiver fluid and 400 mL of the receiver fluid was removed and replaced with 400 mL of PEG 400.
Two different formulations were used for charging the donor compartment. Drugs were made up in either 100% PG or a gel formulation. For the PG solution, approximately 50-120 mg of the appropriate drug was weighed into a glass silanized culture tube. The gel formulation resulted from the mixing of absolute ethanol, nanopure water, IPM, Carbopol® 980, 0.1 N aqueous sodium hydroxide solution and the respective drug.
Dermatomed skin harvested from abdominoplasty, stored at −20° C., was used for the experiments. A PermeGear flow-through (In-Line, Riegelsville, Pa.) diffusion cell system was used for the skin permeation studies.
Diffusion cells were kept at 32° C. with a circulating water bath. Human epidermal skin was arranged in the diffusion cell with stratum corneum (upper layer of skin) facing the donor compartment. Permeation area of the skin was 0.95 cm^2. Data was collected from a human skin donor with three to four diffusion cells per treatment.
Receiver solution was HEPES-buffered Hanks' balanced salts with gentamicin containing 40% PEG 400 at a pH of 7.4 and flow rate was adjusted to 0.8 mL/h. Each cell was charged with 0.050 mL of the respective drug formulation (donor solution) or with 0.035 mL of gel formulation which was rubbed into the skin for 15 sec with a Teflon coated rod. The formulation was applied to ensure complete coverage. Diffusion cells were covered with a cap for the duration of the study.
Samples were collected into scintillation vials in 3 h increments for either 24 h or 36 h. All the samples were stored at 4° C. until extracted. An aliquot (0.5 mL) of the diffusion sample was placed into a silanized HPLC vial and 0.5 mL of acetonitrile was added to the sample, capped and vortexed.
At the end of the experiment, the skin tissue was removed from the diffusion cell, rinsed with nanopure water, and blotted dry with a paper towel. The skin was tape stripped twice using book tape (Scotch™, 3M, St. Paul, Minn.) to remove drug formulation adhering to the tissue surface. The area of skin in contact with the drug was cut out, chopped up and placed in a pre-weighed scintillation vial. Ten mL of acetonitrile was added to the vial and drug was extracted from the skin by shaking at room temperature overnight. The following day a 0.1 mL aliquot was removed and diluted with an additional 0.9 mL of acetonitrile. The diluted sample was added to the silanized HPLC vial for analysis.
At the end of the experiment, a 0.01 mL aliquot of the PG donor solution was removed and added to a scintillation vial containing 10 mL of acetonitrile. The vials were vortexed and then sonicated for 15 min. An aliquot of 1 mL was removed and transferred into a silanized HPLC vial for analysis.

[2] = Table 3, in propylene glycol, prodrug applied
[3] = Table 4, in propylene glycol, prodrug applied
[4] = Table 5, in propylene glycol, prodrug applied

Structure (SMILES): C=C(C)C1CCC(C)=CC1c1c(OC(=O)COCCOCCOC)cc(CCCCC)cc1OC(=O)COCCOCCOC (stereo not drawn) [ALL00141, CBD bis(2-[2-(2-methoxyethoxy)ethoxy]acetate)]
- % mono-prodrug at time (h) ([1]; 2 h): 1%
- % mono-prodrug at time (h) ([1]; 20 h): 2%
- % Di-prodrug at time (h) ([1]; 0 h): 98%
- % Di-prodrug at time (h) ([1]; 2 h): 71%
- % Di-prodrug at time (h) ([1]; 20 h): 46%

Structure (SMILES): C=C(C)C1CCC(C)=CC1c1c(OC(=O)OCN(CC)CC)cc(CCCCC)cc1OC(=O)OCN(CC)CC (stereo not drawn) [ALL00102]
- flux enhancement (in words) (human abdominal skin; Example 1): No flux enhancement
- form in which the prodrug permeated through the human skin (human abdominal skin; Example 1): permeated through the human skin as cannabidiol
- found in the skin disposition (tissue) samples (human abdominal skin; Example 1): Both cannabidiol and intact prodrug were found
- intact prodrug in the diffusion samples (receiver samples) (human abdominal skin; Example 1): No intact prodrug was found
- total cannabidiol in the skin compared to cannabidiol (human abdominal skin; Example 1): higher
- 24 h cumulative amt (human abdominal skin; [2]): 8.6 ± 6.3 nmol
- Flux (human abdominal skin; [2]): 0.6 ± 0.5 nmol/cm^2/h
- 24 h cumulative amt (human abdominal skin; [3]): 9.1 ± 5.0 nmol
- Flux (human abdominal skin; [3]): 0.7 ± 0.3 nmol/cm^2/h
- Lag time (human abdominal skin; [3]): 11.0 ± 2.8 h
- 24 h skin conc (human abdominal skin; Table 4, in propylene glycol, prodrug applied, found in skin as CBD): 18.9 ± 9.9 (CBD) μmol/g
- 24 h skin conc (human abdominal skin; Table 4, in propylene glycol, prodrug applied, found in skin as PD (prodrug)): 73.4 ± 35.5 (PD) μmol/g
- 24 h cumulative amt (human abdominal skin; [4]): 13.7 ± 18.6 nmol
- Flux (human abdominal skin; [4]): 0.3 ± 0.1 nmol/cm^2/h
- Lag time (human abdominal skin; [4]): 5.1 ± 0.0 h
- 24 h skin conc (human abdominal skin; Table 5, in propylene glycol, prodrug applied, found in skin as PD (prodrug)): 183.1 ± 62.8 (PD) μmol/g
- 24 h cumulative amt (human abdominal skin; Table 9, in gel formulation): 1.1 ± 0.4 nmol
- Flux (human abdominal skin; Table 9, in gel formulation): 0.05 ± 0.02 nmol/cm^2/h
- Lag time (human abdominal skin; Table 9, in gel formulation): 1.6 ± 1.6 h
- 24 h skin conc (human abdominal skin; Table 9, in gel formulation, as applied compound (CBD, or PD = intact prodrug)): 22.9 ± 9.3 (PD) μmol/g
- 24 h skin conc (human abdominal skin; Table 9, in gel formulation, prodrug applied, found in skin as CBD): 0.4 ± 0.3 (CBD) μmol/g
- 24 h skin conc (human abdominal skin; Table 10, in propylene glycol, as applied compound (CBD, or PD = intact prodrug)): 31.3 ± 5.5 (PD) μmol/g
